Laboratory results reported in paper PMC3057289 (2011).

Molecular target: T1, TRPC5 (Homo sapiens, UniProt Q9UL62)
T1 sequence (Q9UL62 1-973): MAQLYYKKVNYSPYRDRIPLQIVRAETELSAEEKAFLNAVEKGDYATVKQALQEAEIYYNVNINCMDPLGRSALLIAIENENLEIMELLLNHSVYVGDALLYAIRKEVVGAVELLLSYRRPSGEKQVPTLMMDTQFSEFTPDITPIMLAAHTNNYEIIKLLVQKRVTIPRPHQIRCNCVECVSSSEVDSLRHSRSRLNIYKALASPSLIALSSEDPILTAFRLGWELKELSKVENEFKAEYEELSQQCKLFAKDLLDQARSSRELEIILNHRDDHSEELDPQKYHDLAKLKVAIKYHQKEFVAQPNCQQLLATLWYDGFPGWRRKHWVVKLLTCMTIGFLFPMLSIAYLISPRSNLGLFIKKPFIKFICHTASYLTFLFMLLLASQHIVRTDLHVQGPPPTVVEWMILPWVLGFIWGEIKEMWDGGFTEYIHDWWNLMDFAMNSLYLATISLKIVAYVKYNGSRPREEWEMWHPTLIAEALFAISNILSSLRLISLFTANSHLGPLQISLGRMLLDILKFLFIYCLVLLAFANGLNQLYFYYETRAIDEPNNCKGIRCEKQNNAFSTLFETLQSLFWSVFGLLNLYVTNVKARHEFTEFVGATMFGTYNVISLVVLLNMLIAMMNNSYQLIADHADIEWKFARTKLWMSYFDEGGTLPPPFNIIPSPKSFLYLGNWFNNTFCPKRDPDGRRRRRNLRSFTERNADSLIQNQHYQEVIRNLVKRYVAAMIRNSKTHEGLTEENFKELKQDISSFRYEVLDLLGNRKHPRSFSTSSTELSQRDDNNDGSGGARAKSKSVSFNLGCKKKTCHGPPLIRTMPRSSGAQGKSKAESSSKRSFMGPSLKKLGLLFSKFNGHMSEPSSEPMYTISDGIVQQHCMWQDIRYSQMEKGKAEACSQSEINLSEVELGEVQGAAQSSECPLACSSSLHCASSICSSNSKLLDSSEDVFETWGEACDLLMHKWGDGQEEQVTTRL
Assay type: cell-based

CC(=O)[C@H]1CC[C@H]2[C@@H]3CCC4=CC(=O)CC[C@]4(C)[C@H]3CC[C@]12C [prog, progesterone]
IC50: 5 µM
